Like-named read-outs stand apart in the source and are kept apart here. Starred links: 1 amine or outer side, 2 acyl side, 3 side chain; linkers in the order of their positions; H or OH if unused. Positions of bridges follow the written chain, without caps; N, C: chain ends. Non-standard residues stand in square brackets, D forms with d. Residues, ends and D or L forms follow the SMILES beside them. *: point of attachment. Phe(3-NHCO(CH2)3SO2NH2) = N[C@@H](Cc1cccc(NC(=O)CCCS(N)(=O)=O)c1)C(=O)O; DOTA = O=C(O)CN1CCN(CC(=O)O)CCN(CC(=O)*)CCN(CC(=O)O)CC1; Phe(3-CF3) = N[C@@H](Cc1cccc(C(F)(F)F)c1)C(=O)O; Nip(3R) = O=C([C@@H]1CCCN([*:1])C1)[*:2]; mXylylene = c1cc(C[*:1])cc(C[*:2])c1; X14 = O=C([C@H]1CCCN([*:1])C1)[*:2]; X2 = O=C(CN1CCC(N[*:1])CC1)[*:2]; X1 = O=C(CN1CCN([*:1])CC1)[*:2]; X39 = NS(=O)(=O)c1ccc(N*)cc1; X41 = NS(=O)(=O)c1cccc(N*)c1; Pip = O=C(O)[C@@H]1CCCCN1; Dap = NC[C@H](N)C(=O)O
Columns and labels:
[1] = molecular target: T1, CAIX-expressing human HT-29 colorectal cancer cells (Homo sapiens, UniProt Q16790); test: FACS binding assay (IC50 determination, competition with tracer 3BP-2776 or 3BP-4149); settings: FACS binding assay, HT-29 cells, 4° C., 1 hour, read-out: pIC50 category (activity) (converted)
T1 construct: CAIX-expressing human HT-29 colorectal cancer cells; host or cells: HT-29 human colorectal cancer cells
In short: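 HT-29 cells in FACS buffer (PBS, 1% FCS) at 500.000 cells/ml were exposed to compounds competing with a labelled tracer, with biotinylated compounds detected by 1 μg/mL APC-streptavidin for 30 min on ice. APC/Cy5 median fluorescence was read by flow cytometry and IC50 derived by 4PL fit.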

[2] = molecular target: T2, human carbonic anhydrase IX (hCAIX-Fc) (Homo sapiens, UniProt Q16790); test: Surface plasmon resonance assay with hCAIX-Fc; type: binding; settings: 25° C.; for t1/2 category (activity): SPR dissociation half-life, hCAIX-Fc; for Kd: SPR, hCAIX-Fc captured, read-out: pKD category (activity) (converted)
T2 construct: purchased SinoBliological (Sino Biological) 10107-H02H

[3] = competition with tracer 3BP-4149 (3 nM, Cy5-labeled)
[4] = competition with tracer 3BP-2776 (10 nM, biotin-labeled)

Row | SMILES | IC50 [1, 3] [nM] | t1/2 category (activity) [2] | Kd [2] [nM] | IC50 [1, 4] [nM]
1 | CC(C)C[C@@H]1NC(=O)[C@H](Cc2cccc(C(F)(F)F)c2)NC(=O)[C@H](CC(=O)O)NC(=O)[C@H]2CCCN2C(=O)[C@H](CCC(=O)O)NC(=O)[C@@H]2CSCc3cccc(c3)CSC[C@@H](C(N)=O)NC(=O)[C@H](CNC(=O)C[C@H](NC(=O)[C@@H](NC(=O)CN3CCC(NC(=O)CN4CCN(CC(=O)O)CCN(CC(=O)O)CCN(CC(=O)O)CC4)CC3)C(C)C)C(=O)N2)NC(=O)[C@H](Cc2c[nH]c3ccccc23)NC(=O)[C@H]([C@@H](C)O)NC1=O [3BP-4440] ({DOTA}-[X2]VDCE[dP]D[Phe(3-CF3)]LTW[Dap]C-NH2; lactam 3-12; linker 4-13 via mXylylene) | < 10 | B (t1/2 between 5.1 and 15.0 minutes) | < 10 | –
2 | CC(C)C[C@@H]1NC(=O)[C@H](Cc2c[nH]c3ccccc23)NC(=O)[C@H](CCC(=O)Nc2cccc(S(N)(=O)=O)c2)NC(=O)[C@H]2CCCN2C(=O)[C@H](CCC(=O)O)NC(=O)[C@@H](NC(=O)[C@H](Cc2ccc(O)cc2)NC(=O)[C@@H](NC(=O)CN2CCC(NC(=O)CN3CCN(CC(=O)O)CCN(CC(=O)O)CCN(CC(=O)O)CC3)CC2)C(C)C)CSCc2cccc(c2)CSC[C@@H](C(N)=O)NC(=O)[C@H](CO)NC(=O)[C@H](Cc2c[nH]c3ccccc23)NC(=O)[C@H]([C@@H](C)O)NC1=O [3BP-4441] ({DOTA}-[X2]VYCE[dP]E(X41)WLTWSC-NH2; linker 4-13 via mXylylene) | 10 to 79.4 | A (t1/2>15.0 minutes) | < 10 | –
3 | CC(C)C[C@@H]1NC(=O)[C@H](Cc2c[nH]c3ccccc23)NC(=O)[C@H](CCC(=O)Nc2ccc(S(N)(=O)=O)cc2)NC(=O)[C@H]2CCCN2C(=O)[C@H](CCC(=O)O)NC(=O)[C@@H](NC(=O)[C@H](Cc2ccc(O)cc2)NC(=O)[C@@H](NC(=O)CN2CCC(NC(=O)CN3CCN(CC(=O)O)CCN(CC(=O)O)CCN(CC(=O)O)CC3)CC2)C(C)C)CSCc2cccc(c2)CSC[C@@H](C(N)=O)NC(=O)[C@H](CO)NC(=O)[C@H](Cc2c[nH]c3ccccc23)NC(=O)[C@H]([C@@H](C)O)NC1=O [3BP-4442] ({DOTA}-[X2]VYCE[dP]E(X39)WLTWSC-NH2; linker 4-13 via mXylylene) | 10 to 79.4 | A (t1/2>15.0 minutes) | < 10 | –
4 | CC(C)C[C@@H]1NC(=O)[C@H](Cc2cccc(NC(=O)CCCS(N)(=O)=O)c2)NC(=O)[C@H](CC(=O)O)NC(=O)[C@H]2CCCN2C(=O)[C@H](CCC(=O)O)NC(=O)[C@@H]2CSCc3cccc(c3)CSC[C@@H](C(N)=O)NC(=O)[C@H](CNC(=O)C[C@H](NC(=O)[C@@H](NC(=O)CN3CCC(NC(=O)CN4CCN(CC(=O)O)CCN(CC(=O)O)CCN(CC(=O)O)CC4)CC3)C(C)C)C(=O)N2)NC(=O)[C@H](Cc2c[nH]c3ccccc23)NC(=O)[C@H]([C@@H](C)O)NC1=O [3BP-4445] ({DOTA}-[X2]VDCE[dP]D[Phe(3-NHCO(CH2)3SO2NH2)]LTW[Dap]C-NH2; lactam 3-12; linker 4-13 via mXylylene) | < 10 | A (t1/2>15.0 minutes) | < 10 | –
5 | CC(C)C[C@@H]1NC(=O)[C@H](Cc2c[nH]c3ccccc23)NC(=O)[C@H](CC(=O)O)NC(=O)[C@H]2CCCN2C(=O)[C@H](CCC(=O)O)NC(=O)[C@@H](NC(=O)[C@H](Cc2ccc(O)cc2)NC(=O)CN2CCN(C(=O)CN3CCN(CC(=O)O)CCN(CC(=O)O)CCN(CC(=O)O)CC3)CC2)CSCc2cccc(c2)CSC[C@@H](C(N)=O)NC(=O)[C@H](CO)NC(=O)[C@H](Cc2c[nH]c3ccccc23)NC(=O)[C@H]([C@@H](C)O)NC1=O [3BP-4446] ({DOTA}-[X1]YCE[dP]DWLTWSC-NH2; linker 3-12 via mXylylene) | 10 to 79.4 | C (t1/2 between 2.1 and 5.0 minutes) | < 10 | –
6 | CC(C)C[C@@H]1NC(=O)[C@H](Cc2cccc(NC(=O)CCCS(N)(=O)=O)c2)NC(=O)[C@H](CC(=O)O)NC(=O)[C@H]2CCCN2C(=O)[C@H](CCC(=O)O)NC(=O)[C@@H](NC(=O)[C@H](Cc2ccc(O)cc2)NC(=O)CN2CCN(C(=O)CN3CCN(CC(=O)O)CCN(CC(=O)O)CCN(CC(=O)O)CC3)CC2)CSCc2cccc(c2)CSC[C@@H](C(N)=O)NC(=O)[C@H](CO)NC(=O)[C@H](Cc2c[nH]c3ccccc23)NC(=O)[C@H]([C@@H](C)O)NC1=O [3BP-4448] ({DOTA}-[X1]YCE[dP]D[Phe(3-NHCO(CH2)3SO2NH2)]LTWSC-NH2; linker 3-12 via mXylylene) | – | A (t1/2>15.0 minutes) | < 10 | < 10
7 | CC(C)C[C@@H]1NC(=O)[C@H](Cc2cccc(NC(=O)CCCS(N)(=O)=O)c2)NC(=O)[C@H](CC(=O)O)NC(=O)[C@H]2CCCN2C(=O)[C@H](CCC(=O)O)NC(=O)[C@@H](NC(=O)[C@H](CCC(N)=O)NC(=O)CN2CCN(CC(=O)O)CCN(CC(=O)O)CCN(CC(=O)O)CC2)CSCc2cccc(c2)CSC[C@@H](C(N)=O)NC(=O)[C@H](CO)NC(=O)[C@H](Cc2c[nH]c3ccccc23)NC(=O)[C@H]([C@@H](C)O)NC1=O [3BP-4453] | – | A (t1/2>15.0 minutes) | < 10 | < 10
8 | CC(C)C[C@@H]1NC(=O)[C@H](Cc2cccc(NC(=O)CCCS(N)(=O)=O)c2)NC(=O)[C@H](CC(=O)O)NC(=O)[C@H]2CCCN2C(=O)[C@H](CCC(=O)O)NC(=O)[C@@H](NC(=O)[C@H](Cc2ccc(O)cc2)NC(=O)[C@H]2CCCN(C(=O)CN3CCN(CC(=O)O)CCN(CC(=O)O)CCN(CC(=O)O)CC3)C2)CSCc2cccc(c2)CSC[C@@H](C(N)=O)NC(=O)[C@H](CO)NC(=O)[C@H](Cc2c[nH]c3ccccc23)NC(=O)[C@H]([C@@H](C)O)NC1=O [3BP-4454] ({DOTA}-[X14]YCE[dP]D[Phe(3-NHCO(CH2)3SO2NH2)]LTWSC-NH2; linker 3-12 via mXylylene) | 10 to 79.4 | A (t1/2>15.0 minutes) | < 10 | –
9 | CC(C)C[C@@H]1NC(=O)[C@H](Cc2cccc(NC(=O)CCCS(N)(=O)=O)c2)NC(=O)[C@H](CC(=O)O)NC(=O)[C@H]2CCCN2C(=O)[C@H](CCC(=O)O)NC(=O)[C@@H](NC(=O)[C@H](Cc2ccc(O)cc2)NC(=O)[C@@H]2CCCN(C(=O)CN3CCN(CC(=O)O)CCN(CC(=O)O)CCN(CC(=O)O)CC3)C2)CSCc2cccc(c2)CSC[C@@H](C(N)=O)NC(=O)[C@H](CO)NC(=O)[C@H](Cc2c[nH]c3ccccc23)NC(=O)[C@H]([C@@H](C)O)NC1=O [3BP-4455] ({DOTA}-[Nip(3R)]YCE[dP]D[Phe(3-NHCO(CH2)3SO2NH2)]LTWSC-NH2; linker 3-12 via mXylylene) | – | A (t1/2>15.0 minutes) | < 10 | < 10
10 | CC(C)C[C@@H]1NC(=O)[C@H](Cc2cccc(NC(=O)CCCS(N)(=O)=O)c2)NC(=O)[C@H](CC(=O)O)NC(=O)[C@H]2CCCN2C(=O)[C@H](CCC(=O)O)NC(=O)[C@@H](NC(=O)[C@H](Cc2ccc(O)cc2)NC(=O)[C@@H]2CCCCN2C(=O)CN2CCN(CC(=O)O)CCN(CC(=O)O)CCN(CC(=O)O)CC2)CSCc2cccc(c2)CSC[C@@H](C(N)=O)NC(=O)[C@H](CO)NC(=O)[C@H](Cc2c[nH]c3ccccc23)NC(=O)[C@H]([C@@H](C)O)NC1=O [3BP-4456] ({DOTA}-[Pip]YCE[dP]D[Phe(3-NHCO(CH2)3SO2NH2)]LTWSC-NH2; linker 3-12 via mXylylene) | 10 to 79.4 | A (t1/2>15.0 minutes) | < 10 | –

— patent US20250339569A1, “CARBONIC ANHYDRASE IX LIGANDS” (priority 2021, published 2025)
